According to patent US20220288091A1, “Method for Improving Insulin Sensitivity” (priority 2019, published 2022):

What was measured:
[1] = system: overweight or obese subjects with prediabetes or mild type 2 diabetes; assay: Frequently sampled intravenous glucose tolerance test (FSIVGTT); assay type: in vivo, human; details: Ln(FFA) slope / AUC insulin 0-90 min of FSIVGTT; 50 mg every 6 hours for 9 days; mean±SD, n=16
Protocol: A randomized, placebo-controlled, double-blind crossover trial was conducted to evaluate the use of an anti-glucocorticoid as a means for ameliorating insulin resistance. Mifepristone, 50 mg, or a placebo, was administered every six hours for nine days to sixteen overweight or obese (BMI 25-37 kg/m^2) subjects (seven women). Participant ages ranged from 48 to 64 years. Ten had prediabetes and six had mild diabetes type II (HgbA1c less than 7%). Treatment of the glucose disorder with diet or a stable dose of metformin (used by two patients) was maintained for three (3) months before the study. The interventions were nine days of mifepristone or placebo treatment followed by a six (6) to eight (8) week wash out and cross over to the other arm. At baseline and at the end of each treatment period, parameters of insulin sensitivity were assessed by a frequently sampled intravenous glucose tolerance test (FSIVGTT) and an oral glucose tolerance test (OGTT). […] Adipo-IR, a surrogate measure of adipocyte insulin resistance, was calculated by multiplying fasting concentrations of free fatty acids and insulin (mmol×pmol/L). […]
Insulin sensitivity index, SI, was determined from the minimal model using data from the insulin-modified FSIVGTT as previously described (version 6.02; MinMOD Millenium, Los Angeles, Calif.). […]

[2] = system: overweight or obese subjects with prediabetes or mild type 2 diabetes; assay: 75-g oral glucose tolerance test (OGTT); assay type: in vivo, human; details: 50 mg every 6 hours for 9 days
Protocol: A randomized, placebo-controlled, double-blind crossover trial was conducted to evaluate the use of an anti-glucocorticoid as a means for ameliorating insulin resistance. Mifepristone, 50 mg, or a placebo, was administered every six hours for nine days to sixteen overweight or obese (BMI 25-37 kg/m^2) subjects (seven women). Participant ages ranged from 48 to 64 years. Ten had prediabetes and six had mild diabetes type II (HgbA1c less than 7%). Treatment of the glucose disorder with diet or a stable dose of metformin (used by two patients) was maintained for three (3) months before the study. The interventions were nine days of mifepristone or placebo treatment followed by a six (6) to eight (8) week wash out and cross over to the other arm. At baseline and at the end of each treatment period, parameters of insulin sensitivity were assessed by a frequently sampled intravenous glucose tolerance test (FSIVGTT) and an oral glucose tolerance test (OGTT). A whole body glucose disposal index of insulin sensitivity (SI) was derived using a minimal model analysis. Adipose tissue-SI, which reflects insulin-induced free fatty acid suppression, was estimated by the log-linear slope of free fatty acid levels and the AUC of insulin during the FSIVGTT. Matsuda index, oral glucose insulin sensitivity index (OGIS, ml/min/m^2), and hepatic insulin resistance index (HIRI, mg/dl×microU/ml×10^5) were derived from OGTT. Adipo-IR, a surrogate measure of adipocyte insulin resistance, was calculated by multiplying fasting concentrations of free fatty acids and insulin (mmol×pmol/L). Comparison of various post-treatment parameters was performed using crossover ANOVA. This analysis takes into account specific treatment arm, treatment order, and treatment effects. Thus, carryover effects were explicitly tested for in the crossover study.
On day 3 of baseline and post-treatment testing, subjects underwent a 75-gram OGTT. Serial blood draws for measurement of glucose, insulin and c-peptide were obtained at −5, 0, 30, 60, 90, 120, 150, and 180 minutes.
The Matsuda index and Oral Glucose Insulin Sensitivity Index (OGIS), surrogate indices of whole-body insulin sensitivity were derived from plasma glucose and insulin concentrations during the OGTT as previously described. Abdul-Ghani M A, et. al., Diabetes Care 2007; 30 (1): 89-94. HIRI was calculated as the product of the area under the curves of glucose and insulin for the first 30 minutes of the OGTT. Abdul-Ghani M A, ibid. The Adipo-IR index, a surrogate measure for fasting adipose adipose-tissue insulin resistance, was calculated as the product of fasting insulin and fasting FFA. Sondergaard E. et al., J. Clin. Endocrinol. Metab. 2017; 102(4):1193-9. A dynamic surrogate index of adipose tissue insulin sensitivity was assessed by calculating insulin's ability to suppress FFA levels during a FSIVGTT. Carpenter A. et al., Diabetes 2002; 51(6):1867-75 and Trottier A. et al. Fertil. Steril. […]; 98 (6):1627-34. The adipose tissue insulin sensitivity index was calculated as the ratio of the slope of the linear decrease in natural log transformed FFA [Ln (FFA) slope] during the first 90 minutes of the FSIVGTT and the AUC of insulin during that 90-minute period (AUCInsulin 0-90 min). Mathematical modeling of C-peptide concentrations was used to estimate insulin secretory rates and calculate β-cell responsivity parameters (basal (∅B); first-phase (∅1); second phase (∅2); and total (∅TOT) as previously described. Toffolo G. et al., Metabolism 1999; 48 (9):1162-6 and Cobelli C. et al. Am. J. Physiol. Endocrinol. Metab. 2007; 293 (1): E1-E5. Assuming an absence of hepatic C-peptide extraction, postprandial insulin clearance was calculated as the ratio of mean insulin secretion and insulin concentration. Trico D. et al. JCI Insight 2018; 3(24):e124912.

## CC#C[C@]1(O)CC[C@H]2[C@@H]3CCC4=CC(=O)CCC4=C3[C@@H](c3ccc(N(C)C)cc3)C[C@@]21C [Mifepristone, 11beta-[p-(dimethylamino)phenyl]-17alpha-(1-propynl)estra-4,9-dien-17beta-ol-3-one]
[1]
  Adipose-tissue Insulin Sensitivity Index (Adipose SI): 61.7±32.9
[2]
  Insulin clearance during OGTT vs placebo: lower
[2]; 3-hr OGTT
  AUC for glucose during OGTT vs placebo: not statistically significant
  AUC for insulin during OGTT, lower compared to placebo: about 25%
[2]; AUC glucose × AUC insulin, first 30 min of OGTT, mean±SD, n=16
  Hepatic Insulin Resistance Index (HIRI): 50.2±38.7 mg/dl×microU/ml×10^5
[2]; C-peptide modeling
  Fasting insulin secretory rate (ISR) vs placebo: significantly lower
  ISR during OGTT vs placebo: not different
[2]; derived from OGTT
  Static, dynamic and total β-cell responsivity indices vs placebo: similar
